Experimental data reported in paper PMC4855620, “Structure‐activity relationship of the peptide binding‐motif mediating the BRCA2:RAD51 protein–protein interaction” (Febs Letters, 2016).
Residue numbers refer to the chain shown, from its start. Names and notes keep the numbering of the source. “Also recorded” adds a separate entry of the source. Read-outs that look alike come from different tables or passages of the source. One block for each molecule: values may come before it. Residues, ends and D or L forms follow the SMILES beside them.

Key:
[1] = biological target: HumRadA2 (humanised, monomeric RadA; surrogate for RAD51) (Pyrococcus furiosus, UniProt O74036); assay: Isothermal titration calorimetry of peptides against HumRadA2; assay type: binding; conditions: for ΔH: Tris pH 7.5, 100 mM NaCl, low c-value conditions, ± = model-fitting error; for TΔS: ΔS derived from ΔG by subtracting ΔH; for Change in binding affinity relative to FHTA: ITC K D compared with FHTA
Method: Protein expression and purification was performed as described previously 15. In brief, monomeric HumRadA2 was expressed in E. coli using T7‐based expression vector at 37 °C for 3 h. Soluble cell lysate was heat treated to precipitate most of the cellular proteins and the soluble fraction containing HumRadA2 was purified using a combination of cation exchange chromatography at pH 6.0 and size‐exclusion chromatography in 10 mM MES, 100 mM NaCl pH 6.0 buffer. Protein concentration was determined using the calculated extinction coefficient at 280 nm, and stored at −80 °C in small aliquots after flash freezing.
Isothermal titration calorimetry experiments were performed at 25 °C on a MicroCal iTC200. HumRadA2 (600 μM in 20 mM MES pH 6.0 with 100 mM NaCl and 0.5 mM EDTA) was diluted with Tris buffer (200 mM, pH 7.5 with 100 mM NaCl) to 64–83 μM. […] The peptide solution was titrated into the protein solution; 16 injections (2.4 μL) of 4.8 s duration were made at 80‐s intervals. The initial injection of ligand (0.4 μL) was discarded during data analysis. […] The data were processed and thermodynamic parameters obtained by fitting the data to a single‐site‐binding model using Origin software and fixing the stoichiometry as 1.0 for weak‐binding ligands 16.

[2] = biological target: HumRadA2 (humanised, monomeric RadA from Pyrococcus furiosus) (Pyrococcus furiosus) (UniProt O74036); assay: ITC; peptide (2.5-5 mM) titrated into HumRadA2 (64-83 μM) at 25 °C, MicroCal iTC200, 200 mM Tris pH 7.5, 100 mM NaCl; single-site model, stoichiometry fixed as 1.0 for weak-binding ligands; low c-value conditions
[3] = test system: RAD51; conditions: RAD51 oligomerisation sequence FTTA mutated; cited from earlier work
Source text: Table 1 Summary of FxxA‐relevant mutations previously reported and degree of characterisation. The mutation, relevant peptide context, resulting FxxA motif sequence and experimental technique for each entry is given. For clarity, mutated residues are shown in bold | column: Effect

[4] = biological target: HumRadA2 (humanised, monomeric RadA from Pyrococcus furiosus) (Pyrococcus furiosus) (UniProt O74036); assay: ITC; peptide (2.5-5 mM) titrated into HumRadA2 (64-83 μM) at 25 °C, MicroCal iTC200, 200 mM Tris pH 7.5, 100 mM NaCl; single-site model, stoichiometry fixed as 1.0 for weak-binding ligands; low c-value conditions; remark: listed apart in the source
[5] = ITC, 25 °C, MicroCal iTC200, peptide 2.5–5 mM in 200 mM Tris pH 7.5, 100 mM NaCl titrated into 64–83 μM HumRadA2, single-site model, stoichiometry fixed at 1.0 for weak binders, ± = fitting error

Molecule: FPTA [N-acetylated, C-amide terminated tetrapeptide FPTA]
K D [1, 5]: no affinity for the protein; also recorded: No detectable binding

Molecule: CC[C@H](NC(=O)[C@@H](NC(=O)[C@H](Cc1c[nH]cn1)NC(=O)[C@H](Cc1ccccc1)NC(C)=O)[C@@H](C)O)C(N)=O [FHTU] (HELM PEPTIDE1{[ac].F.H.T.[Abu].[am]}$$$$V2.0)
Kd [1, 5]: 680 ± 51 µM

Molecule: CC(=O)N[C@@H](Cc1ccccc1)C(=O)N[C@@H](CC(N)=O)C(=O)N[C@H](C(=O)N[C@@H](C)C(N)=O)[C@@H](C)O [FNTA] (Ac-FNTA-NH2)
Kd [1, 5]: 613 ± 44 µM | ΔH ([1]; ITC, 25 °C): -4.036 ± 0.177 kcal/mol | TΔS ([1]; ITC, 25 °C): 0.346 kcal/mol

Molecule: CC(=O)N[C@@H](Cc1c[nH]c2ccccc12)C(=O)N[C@@H](Cc1c[nH]cn1)C(=O)N[C@H](C(=O)N[C@@H](C)C(N)=O)[C@@H](C)O [WHTA] (Ac-WHTA-NH2)
Change in binding affinity relative to FHTA [1]: increase the binding affinity of the peptide approximately threefold | Kd [1, 5]: 93 ± 3 µM | ΔH ([1]; ITC, 25 °C): -2.768 ± 0.034 kcal/mol | TΔS ([1]; ITC, 25 °C): 2.727 kcal/mol

Molecule: CC(=O)N[C@@H](Cc1c[nH]c2ccccc12)C(=O)N[C@@H](Cc1c[nH]cn1)C(=O)N1CCC[C@H]1C(=O)N[C@@H](C)C(N)=O [WHPA] (Ac-WHPA-NH2)
Change in binding affinity relative to FHTA [1]: no improvement | Kd [1, 5]: 330 ± 25 µM | ΔH ([1]; ITC, 25 °C): -6.801 ± 0.318 kcal/mol | TΔS ([1]; ITC, 25 °C): -2.044 kcal/mol

dH [2]: -14.6 kcal/mol
Molecule: FHTU tetrapeptide (U = α-amino butyric acid)

Molecule: CC(=O)N[C@@H](Cc1ccccc1)C(=O)N[C@@H](Cc1c[nH]cn1)C(=O)N[C@@H](C)C(=O)N[C@@H](C)C(N)=O [FHAA] (Ac-FHAA-NH2)
Kd [1, 5]: 675 ± 60 µM | ΔH ([1]; ITC, 25 °C): -7.948 ± 0.466 kcal/mol | TΔS ([1]; ITC, 25 °C): -3.636 kcal/mol

Molecule: CC(=O)N[C@@H](Cc1ccccc1)C(=O)N[C@@H](Cc1c[nH]cn1)C(=O)N[C@H](C(=O)N[C@@H](C)C(N)=O)[C@@H](C)O [FHTA] (Ac-FHTA-NH2)
ΔH ([1]; ITC, 25 °C): -2.388 ± 0.094 kcal/mol | TΔS ([1]; ITC, 25 °C): 2.453 kcal/mol

Molecule: CC(=O)N[C@@H](Cc1ccccc1)C(=O)N[C@@H](Cc1c[nH]cn1)C(=O)N1CCC[C@H]1C(=O)N[C@@H](C)C(N)=O [FHPA] (Ac-FHPA-NH2)
Kd [1, 5]: 113 ± 3 µM | ΔH ([1]; ITC, 25 °C): -2.155 ± 0.026 kcal/mol | TΔS ([1]; ITC, 25 °C): 3.218 kcal/mol

Molecule: CC(=O)N[C@@H](Cc1ccccc1)C(=O)N[C@@H](Cc1c[nH]cn1)C(=O)N[C@H](C(=O)NCC(N)=O)[C@@H](C)O [FHTG] (Ac-FHTG-NH2)
Change in binding affinity relative to FHTA [1]: approximately sixfold drop in binding affinity | Kd [1, 5]: 1590 ± 300 µM | ΔH ([1]; ITC, 25 °C): -5.518 ± 0.924 kcal/mol | TΔS ([1]; ITC, 25 °C): -1.702 kcal/mol

dH [2]: -2.77 kcal/mol
Molecule: Ac-WHTA-NH2 [WHTA tetrapeptide]

dH [2]: -2.16 kcal/mol
Molecule: Ac-FHPA-NH2 [FHPA tetrapeptide]

B1: RAD51 A89E: RAD51 with oligomerisation sequence FTTA mutated to FTTE (literature) (protein, UniProt Q06609 2-339, looked up, variant A89E)
DNA repair protein RAD51 …: AMQMQLEANADTSVEEESFGPQPISRLEQCGINANDVKKLEEAGFHTVEAVAYAPKKELINIKGISEAKADKILAEAAKLVPMGFTTETEFHQRRSEIIQITTGSKELDKLLQGGIETGSITEMFGEFRTGKTQICHTLAVTCQLPIDRGGGEGKAMYIDTEGTFRPERLLAVAERYGLSGSDVLDNVAYARAFNTDHQTQLLYQASAMMVESRYALLIVDSATALYRTDYSGRGELSARQMHLARFLRMLLRLADEFGVAVVITNQVVAQVDGAAMFAADPKKPIGGNIIAHASTTRLYLRKGRGETRICKIYDSPCLPEAEAMFAINADGVGDAKD
Effect of mutation (binding) [3]: No binding

B2: RAD51 F86E: RAD51 with oligomerisation sequence FTTA mutated to ETTA (literature) (protein, UniProt Q06609 2-339, looked up, variant F86E)
DNA repair protein RAD51 …: B1 DNA repair protein RAD51 … with F85E, E88A
Effect of mutation (binding) [3]: No binding

dH [2]: -7.95 kcal/mol
Molecule: Ac-FHAA-NH2 [FHAA tetrapeptide]

dH [2]: -4.04 kcal/mol
Molecule: Ac-FNTA-NH2 [FNTA tetrapeptide]

Kd [2]: 280 µM | dH [2]: -2.39 kcal/mol
Molecule: Ac-FHTA-NH2 [FHTA tetrapeptide (FxxA motif of BRC4 of BRCA2)]

dH [2]: -6.8 kcal/mol | Kd [4]: 690 µM
Molecule: Ac-WHPA-NH2 [WHPA tetrapeptide]

dH [2]: -5.52 kcal/mol
Molecule: Ac-FHTG-NH2 [FHTG tetrapeptide]
